Experimental data from patent US20250049757A1, “COMBINATORY THERAPY FOR CANCER USING BIPHENYL COMPOUND AND IMMUNE CHECKPOINT MOLECULE REGULATOR” (Taiho Pharmaceutical Co. Ltd., priority 2021, published 2025).

How the values were obtained:
Assay type in all cases: in vivo
[1] = test system: mouse colon cancer cell line MC38; assay: Antitumor effect in MC38 transplanted immune deficient CB17/Icr-Prkdc[scid]/CrlCrlj mice (Example 2)
Experimental: (§1) The MC38 cell suspension was transplanted subcutaneously at 2.0×10^6 cells/0.1 ml to the right chest of 6-week-old C57BL/6JJcl mice (CLEA Japan, Inc.) or CB17/Icr-Prkdc[scid]/CrlCrlj (Charles River Laboratories Japan Inc.). CB17/Icr-Prkdc[scid]/CrlCrlj mice are mice with immune deficiency due to lack of Tcells and B-cells in the peripheral blood.
(§2) The tumor was grown until reaching a TV of 50 to 300 mm^3 after the transplantation. Degimatic Caliper was used for tumor diameter measurement. The major diameter and the minor diameter of the tumor were measured, and TV was calculated from the following equation.
(§3) TV (mm^3)=major diameter (mm)×minor diameter (mm)×minor diameter (mm)/2
(§4) By a stratified random allocation method using TV as an index, ten C57BL/6JJcl mice were allocated to each group, and five CB17/Icr-Prkdc [scid]/CrlCrlj mice were allocated to each group. The day when grouping was performed was defined as Day 0. An electronic balance for animals was used for body weight measurement. The body weight change ratio on the nth day (BWCn) was calculated from the body weight on the nth day (BWn) in accordance with the following equation.
(§5) Body weight change ratio BWCn (%)=(BWn−BW0)/BW0×100
(§6) An appropriate amount of water for injection described in the Japanese Pharmacopeia was added for adjusting hypromellose concentration to 0.5 w/v %, and the mixture was then stirred with a stirrer to completely dissolve hypromellose, to prepare a 0.5% aqueous hypromellose solution. Benzoic acid salt of Compound A was ground with an agate mortar, and then suspended to a predetermined concentration with the 0.5% aqueous hypromellose solution, and ultrasonic treatment was performed to obtain a homogeneous suspension. The suspension containing Compound A was orally administered once a day for 21 consecutive days at a dose of 25 mg/kg/day. The dosage is indicated based on the free form of the Compound A.

[2] = test system: mouse colon cancer cell line MC38; assay: Combination of Compound A and anti-mouse PD-1 antibody in MC38 transplanted wild type C57BL/6JJcl mice (Example 3); settings: Aspin-Welch's t-test
Experimental: The MC38 cell suspension was transplanted subcutaneously at 2.0×10^6 cells/0.1 ml to the right chest of 6-week-old C57BL/6JJcl mice (CLEA Japan, Inc.).
as §2, §3
By a stratified random allocation method using TV as an index, 10 mice were allocated to each group. The day when grouping was performed was defined as Day 0.
An electronic balance for animals was used for body weight measurement. The body weight change ratio on the nth day (BWCn) was calculated from the body weight on the nth day (BWn) in accordance with the following equation.
as §5
An appropriate amount of water for injection described in the Japanese Pharmacopeia was added for adjusting hypromellose concentration to 0.5 w/v %, and the mixture was then stirred with a stirrer to completely dissolve hypromellose, to prepare a 0.5% aqueous hypromellose solution.
On the first day of administration (day 1), the diluted product was intraperitoneally administered with the dose of 0.05 mg/body of the anti-mouse PD-1 antibody.

[3] = test system: mouse colon cancer cell strain MC38; assay: Flow cytometric analysis of tumor infiltrating leucocytes in MC38 transplanted mice (Example 1); settings: Day 7, tumor infiltrating leucocytes, Compound A 25 mg/kg/day po 6 days, Dunnett test
Experimental: The mouse colon cancer cell strain MC38 was obtained from Dr. Yoshihiro Hayakawa (University of Toyama, Toyama, Japan). The MC38 cell strain was subjected to culture in an RPMI 1640 medium containing 10% fetal bovine serum and then to subculture in an incubator at 37° C. in the presence of 5% CO2 at a frequency of once or twice a week.
The MC38 cell suspension was transplanted subcutaneously at 1.5×10^6 cells/0.1 ml to the right chest of 6-week-old C57BL/6JJcl mice (CLEA Japan, Inc.).
The tumor was grown until reaching a tumor volume (TV) of 80 to 230 mm^3 after the transplantation. Degimatic Caliper was used for tumor diameter measurement. The major diameter and the minor diameter of the tumor were measured, and TV was calculated from the following equation.
as §3
By a stratified random allocation method using TV as an index, 5 animals were allocated to each group. The day when grouping (n=5) was performed was defined as Day 0. […]
For detecting expression of immunity-related factors, flow cytometric analysis was performed for immunological monitoring. […] Thereafter, the isolated lymphocytes were stained with antibodies below, and then, analyzed using Flow Cytometer FACSVerse (BD Bioscience). […]

[4] = test system: mouse colon cancer cell line MC38; assay: Antitumor effect in MC38 transplanted wild type (immune proficient) C57BL/6JJcl mice (Example 2)
Experimental: as §1, §2, §3, §4, §5, §6

[5] = immune deficient CB17/Icr-Prkdc[scid]/CrlCrlj mice, 25.0 mg/kg/day qd Day 1-21 po
[6] = wild type C57BL/6JJcl mice, 25.0 mg/kg/day qd Day 1-21 po

CC(C)(O)Cc1ccc(-c2ccc(C(=O)N3CC[C@H](N)C3)cc2-c2ccc(C#N)c(F)c2)c(F)c1 [Compound A, 4-[5-[(3S)-3-aminopyrrolidine-1-carbonyl]-2-[2-fluoro-4-(2-hydroxy-2-methyl-propyl)phenyl]phenyl]-2-fluoro-benzonitrile]
Body weight change Day 22 Mean ± SE [1, 5]: 9.2 ± 4.2% | Tumor volume Day 22 Mean ± SE [1, 5]: 2431.6 ± 359.7 mm^3 | antitumor effect: TV on Day 22 as compared to the control group ([1]; immune deficient mice, Aspin-Welch's t-test): didn't exhibit any antitumor effect | antitumor effect: TV on Day 22 as compared to the control group [2]: significantly lower TV | ratio of gMDSC (CD45 positive, CD90.2 negative, CD11b positive, Ly6G positive cells) in leucocytes as compared to the control group [3]: significantly lower | Body weight change Day 22 Mean ± SE [4, 6]: 2.6 ± 1.2% | Tumor volume Day 22 Mean ± SE [4, 6]: 969.3 ± 114.7 mm^3 | antitumor effect: TV on Day 22 as compared to the control group ([4]; wild type mice, Aspin-Welch's t-test): significantly lower TV
